Measurements taken from PubChem BioAssay (NCI).
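Values below derive from 48-hour exposures of cells grown in 96-well plates, with endpoints linearly interpolated between the two concentrations bracketing the appropriate inhibition level. At the GI50, growth is halved. TGI marks complete inhibition of growth.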

Assays:
Test in all cases: NCI tumour cell line growth inhibition, 48 h
[1] = system: T-47D breast
[2] = system: SR leukemia
[3] = system: U251 CNS
[4] = system: HCC-2998 colon
[5] = system: HOP-62 NSCLC
[6] = system: SK-OV-3 ovarian
[7] = system: UACC-62 melanoma
[8] = system: A549 NSCLC
[9] = system: HS 578T breast
[10] = system: CCRF-CEM leukemia
[11] = system: SF-295 CNS
[12] = system: RPMI-8226 leukemia
[13] = system: MOLT-4 leukemia
[14] = system: NCI/ADR-RES ovarian
[15] = system: IGROV1 ovarian
[16] = system: A498 renal
[17] = system: MALME-3M melanoma
[18] = system: MDA-MB-231 breast
[19] = system: SW-620 colon
[20] = system: NCI-H226 lung
[21] = system: PC-3 prostate
[22] = system: SNB-75 CNS
[23] = system: SK-MEL-28 melanoma
[24] = system: UACC-257 melanoma
[25] = system: HCT-15 colon
[26] = system: ACHN renal
[27] = system: DU-145 prostate
[28] = system: K-562 leukemia
[29] = system: NCI-H23 lung
[30] = system: OVCAR-8 ovarian
[31] = system: OVCAR-3 ovarian
[32] = system: OVCAR-5 ovarian
[33] = system: KM12 colon
[34] = system: 786-0 renal
[35] = system: COLO 205 colon
[36] = system: SNB-19 CNS
[37] = system: NCI-H522 lung
[38] = system: SK-MEL-5 melanoma
[39] = system: OVCAR-4 ovarian
[40] = system: NCI-H460 lung
[41] = system: HT29 colon
[42] = system: CAKI-1 renal
[43] = system: M14 melanoma
[44] = system: SK-MEL-2 melanoma
[45] = system: HCT-116 colon
[46] = system: SF-268 CNS
[47] = system: TK-10 renal
[48] = system: MCF7 breast
[49] = system: HL-60(TB) leukemia
[50] = system: LOX IMVI melanoma
[51] = system: HOP-92 NSCLC
[52] = system: SN12C renal
[53] = system: UO-31 renal

`Cc1ccc(NC(=O)c2sc3nc4c(cc3c2N)C(=O)CCC4)cc1C` gave a GI50 [1] of 0.533 µM, a TGI [1] greater than 73.2 µM and a GI50 [2] of 0.499 µM. For the same compound, the TGI [2] was 26.8 µM, the GI50 [3] was 0.765 µM and the TGI [3] was greater than 56.7 µM. For the same compound, the GI50 [4] was 1.96 µM, the TGI [4] was greater than 100 µM and the GI50 [5] was 0.733 µM. The TGI [5] was greater than 100 µM, the GI50 [6] was 0.533 µM and the TGI [6] was greater than 100 µM. For the same compound, the GI50 [7] was 0.496 µM, the TGI [7] was greater than 100 µM and the GI50 [8] was 0.704 µM. The TGI [8] was greater than 100 µM, the GI50 [9] was 0.442 µM and the TGI [9] was greater than 100 µM. The GI50 [10] was 0.377 µM, the TGI [10] was 97 µM and the GI50 [11] was 0.358 µM. The TGI [11] was greater than 100 µM, the GI50 [12] was 1.57 µM and the TGI [12] was greater than 30.4 µM. It also gave a GI50 [13] of 6.41 µM, a TGI [13] of 76.2 µM and a GI50 [14] of 0.784 µM. For the same compound, the TGI [14] was greater than 100 µM, the GI50 [15] was 2.2 µM and the TGI [15] was greater than 100 µM. It also gave a GI50 [16] of 0.198 µM, a TGI [16] of 0.658 µM and a TGI [17] greater than 100 µM. It also gave a GI50 [18] of 1.65 µM, a TGI [18] greater than 100 µM and a GI50 [19] of 0.417 µM. For the same compound, the TGI [19] was greater than 100 µM, the GI50 [20] was 27.3 µM and the TGI [20] was greater than 100 µM. It also gave a GI50 [21] of 0.607 µM, a TGI [21] greater than 100 µM and a GI50 [22] of 0.313 µM. For the same compound, the TGI [22] was greater than 100 µM, the GI50 [23] was 1.86 µM and the TGI [23] was greater than 100 µM. For the same compound, the GI50 [24] was 21.6 µM, the TGI [24] was greater than 100 µM and the GI50 [25] was 0.556 µM. The TGI [25] was greater than 100 µM, the GI50 [26] was 1.42 µM and the TGI [26] was greater than 100 µM. The GI50 [27] was 0.673 µM, the TGI [27] was greater than 100 µM and the GI50 [28] was 0.468 µM. It also gave a TGI [28] of 35 µM, a GI50 [29] of 1.41 µM and a TGI [29] greater than 100 µM. For the same compound, the GI50 [30] was 3.45 µM, the TGI [30] was greater than 100 µM and the GI50 [31] was 0.345 µM. It also gave a TGI [31] of 1.6 µM, a GI50 [32] of 3.16 µM and a TGI [32] greater than 100 µM. For the same compound, the GI50 [33] was 0.486 µM, the TGI [33] was greater than 100 µM and the GI50 [34] was 0.699 µM. The TGI [34] was greater than 100 µM, the GI50 [35] was 0.309 µM and the TGI [35] was 0.936 µM. For the same compound, the GI50 [36] was 0.652 µM, the TGI [36] was greater than 100 µM and the GI50 [37] was 0.276 µM. The TGI [37] was 4.88 µM, the GI50 [38] was 0.418 µM and the TGI [38] was 21.6 µM. For the same compound, the GI50 [39] was 1.13 µM, the TGI [39] was greater than 100 µM and the GI50 [40] was 0.399 µM. It also gave a TGI [40] greater than 43.5 µM, a GI50 [41] of 0.399 µM and a TGI [41] of 11.2 µM. It also gave a GI50 [42] of 0.661 µM, a TGI [42] greater than 100 µM and a GI50 [43] of 0.602 µM. For the same compound, the TGI [43] was greater than 100 µM, the GI50 [44] was 0.464 µM and the TGI [44] was greater than 100 µM. The GI50 [45] was 0.546 µM, the TGI [45] was greater than 100 µM and the GI50 [46] was 4.47 µM. It also gave a TGI [46] greater than 100 µM, a GI50 [47] greater than 70 µM and a TGI [47] greater than 100 µM. For the same compound, the GI50 [48] was 0.352 µM, the TGI [48] was greater than 100 µM and the GI50 [49] was 0.36 µM. For the same compound, the TGI [49] was 1.72 µM, the GI50 [50] was 0.837 µM and the TGI [50] was greater than 100 µM. It also gave a TGI [51] greater than 100 µM, a GI50 [52] of 0.797 µM and a TGI [52] greater than 100 µM. For the same compound, the GI50 [53] was 1.81 µM and the TGI [53] was greater than 100 µM.
